Square brackets hold non-standard residues; d marks the D form. Peptide text beside a SMILES is read from it. Orn = NCCC[C@H](N)C(=O)O; βAla = NCCC(=O)O
Key:
Assay type in all cases: cell-based, human
BCBL-1 = assay: Flow cytometry, cell proliferation (Ki67 staining); conditions: BCBL-1, 24 h
Method: (§1) Leukoreduction system chambers (LRS) from healthy donors were purchased from Vitalant. Peripheral blood mononuclear cells (PBMCs) were prepared by a standard Ficoll gradient method. PBMCs along with THP-1 and BCBL-1 cell lines (2 × 10^6 cells/ml, 0.2 ml 10% FBS/RPMI/DMEM per well of a 96-well plate) were treated with various doses (0–256 μM) of either VGN50 peptide or control mutant peptide for 24 h. Cell death, apoptosis, and proliferation were analyzed by flow cytometry (BD Acuri) after intracellular staining with anti-humanKi67-Alexa488 (Biolegend, 1:100) along with the isotype control antibody, annexin-V-FITC with 7-AAD staining (Biolegend) according to the manufacture’s protocol, Live/dead Fixable Red Dead Cell staining kit (Invitrogen) according to the manufacture’s protocol, or MTT assay. Peptides were commercially synthesized (GenScript) with >90% purity with TFA removal. […]
(§2) Isotype control Anti-Ki67 antibody
(§3) S-Figure 3. Flow cytometry analyses […]
(§4) Repr esent at i ve FACS pl ot s wi t h ancest r y gat i ng st r at egy of Ki 67+ popul at i on f or
(§5) BCBL-1 and BC-1 cel l s t r eat ed wi t h PBS wi t h an i sot ype cont r ol ar e shown. Mean +/-SD of
(§6) Ki 67% of t ot al BCBL-1 and BC-1 cel l s anal yzed ar e shown i n Fi g. 2e.

BC-1 = assay: Flow cytometry, cell proliferation (Ki67 staining); conditions: BC-1, 24 h
Method: as §1, §2, §3, §4, §5, §6

BC-1 cells = assay: MTT assay, deletion and mutant peptides; conditions: BC-1, 64 μM
Text: Fig. 2 Viral and cellular responses to K-Rta peptide; identification of VGN50. a Protein sequence alignment. Homologous protein sequences were searched for with BLAST and extracted from other gamma-herpesviral homologs. The consensus protein sequence is depicted at the bottom of table. b Peptide design. Deletion peptides were designed based on the consensus sequence in a. The TAT protein sequence was used as a cell-penetrating peptide (CPP) and placed downstream from the K-Rta protein sequence. (d-R) D amino acid arginine, (ORN) ornithine, (bAla) beta alanine. c Sub cellular peptide localization. Cy5-labeled peptide 1 was used to track subcellular localization. Nuclei were visualized by DAPI staining. The scale is indicated in the panel. d MTT assays with deletion and mutant peptides. Peptide listed in b were incubated with BC-1 cells and MTT conversion was measured 48 h after incubation. The OD of mock-treated samples were set as 100%, and OD from detergent-treated cells were set as 0%. The amount of each peptide used for incubation is depicted along the x-axis. Mean percentage viability ±SD were calculated for each treatment group (n = 3 samples). Peptide 1 was renamed as VGN50. e Flow cytometry analyses of cell proliferation and apoptosis induction. Cells were incubated with VGN50 or mutant peptide (three alanine substitutions) for 24 h followed by measurements of percentage cell proliferation (Ki67 staining) and apoptosis induction (Annexin V staining). Standard deviation bars are included. (n = 3) Two-way Anova, followed by Sidak’s multiple comparisons test. f The effect of VGN50 on various cancer cell types. MTT assays were performed with the indicated cell lines treated with various VGN50 concentrations. The OD of mock-treated samples were set as 100%, and OD from detergent-treated cells were set as 0%. Mean percentage viability ±SD was calculated for each treatment (n = 3 samples/treatment). g Viability assay with flow cytometry. Cell viability was measured in triplicate with live/dead staining and the cell killing effects on cancer cells was compared with normal peripheral blood mononuclear cells (PBMC) from three healthy donors. Results are presented as mean percentage viability ±SD (n = 3 samples/group). f, g Ordinary one-way Anova, followed by Tukey’s multiple comparisons test. […]
Leukoreduction system chambers (LRS) from healthy donors were purchased from Vitalant. […] Cell death, apoptosis, and proliferation were analyzed by flow cytometry (BD Acuri) after intracellular staining with anti-humanKi67-Alexa488 (Biolegend, 1:100) along with the isotype control antibody, annexin-V-FITC with 7-AAD staining (Biolegend) according to the manufacture’s protocol, Live/dead Fixable Red Dead Cell staining kit (Invitrogen) according to the manufacture’s protocol, or MTT assay. […]

CC(C)C[C@H](NC(=O)CCNC(=O)[C@H](CCCNC(=N)N)NC(=O)[C@H](CCCNC(=N)N)NC(=O)[C@H](CCCNC(=N)N)NC(=O)[C@H](CCCN)NC(=O)[C@H](CCCNC(=N)N)NC(=O)[C@H](CCCNC(=N)N)NC(=O)[C@H](CCCCN)NC(=O)[C@H](CCCCN)NC(=O)[C@H](N)CCCNC(=N)N)C(=O)N[C@@H](CO)C(=O)N[C@@H](CO)C(=O)N[C@@H](C)C(=O)N[C@@H](C)C(=O)N[C@@H](C)C(=O)NCC(=O)N[C@@H](CC(C)C)C(=O)N[C@@H](Cc1ccc(O)cc1)C(=O)N[C@@H](CCC(N)=O)C(=O)N[C@@H](CC(C)C)C(=O)N[C@@H](CC(=O)O)C(=O)N[C@H](C(=O)O)[C@@H](C)O [Mt-P] (H-[dR]KKRR[Orn]RRR[βAla]LSSAAAGLYQLDT-OH; N-terminus and C-terminus assumed)
Ki67% (BCBL-1; replicate 1): 33.8765%
Ki67% (BCBL-1; replicate 2): 32.9445%
Ki67% (BCBL-1; replicate 3): 29.2345%
Ki67% (BC-1; replicate 1): 43.3912%
Ki67% (BC-1; replicate 2): 42.2259%
Ki67% (BC-1; replicate 3): 43.3434%
Reduction of cell viability (MTT) compared to untreated control (BC-1 cells): 20%

— PMC8639922, “KSHV transactivator-derived small peptide traps coactivators to attenuate MYC and inhibits leukemia and lymphoma cell growth” (Communications Biology, 2021)
